According to PubChem BioAssay (NCI):
Several values for one entry are separate records, joined by “and”; a condition that tells them apart may be missing. Identical values can stand only once.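 Following 48 hours of exposure in 96-well plates, responses at five concentrations were used to interpolate endpoints linearly. Here, GI50 denotes the concentration required for 50% inhibition of growth. Definition used: TGI = concentration required for complete inhibition of growth.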

What was measured:
Experiment in all cases: NCI tumour cell line growth inhibition, 48 h
SK-MEL-5 melanoma = system: SK-MEL-5 melanoma
NCI-H23 lung = system: NCI-H23 lung
OVCAR-3 ovarian = system: OVCAR-3 ovarian
NCI-H522 lung = system: NCI-H522 lung
U251 CNS = system: U251 CNS
A498 renal = system: A498 renal
UACC-257 melanoma = system: UACC-257 melanoma
M14 melanoma = system: M14 melanoma
BT-549 breast = system: BT-549 breast
MCF7 breast = system: MCF7 breast

Row | Compound | GI50 (SK-MEL-5 melanoma) | TGI (SK-MEL-5 melanoma) | GI50 (NCI-H23 lung) | TGI (NCI-H23 lung) | GI50 (OVCAR-3 ovarian) | TGI (OVCAR-3 ovarian) | GI50 (NCI-H522 lung) | TGI (NCI-H522 lung) | GI50 (U251 CNS) | TGI (U251 CNS) | GI50 (A498 renal) | TGI (A498 renal) | GI50 (UACC-257 melanoma) | TGI (UACC-257 melanoma) | GI50 (M14 melanoma) | TGI (M14 melanoma) | GI50 (BT-549 breast) | TGI (BT-549 breast) | TGI (MCF7 breast) | GI50 (MCF7 breast)
1 | Cc1[nH]n(-c2cccc(Cl)c2)c(=O)c1/C=C1\C=c2ccccc2=CC1=O | > 100 µM | > 100 µM | 48 µM | > 100 µM | 59.5 µM | > 100 µM | > 100 µM | > 100 µM | 40.7 µM | > 100 µM | > 100 µM | > 100 µM | > 100 µM | > 100 µM | > 100 µM | > 100 µM | 27.3 µM | > 100 µM |  | 
2 | Cc1ccc(S(=O)(=O)CC2(Br)CCc3ccccc3C2=O)cc1 (stereo unspecified) |  | 38.4 µM |  | > 100 µM |  | > 100 µM |  | 32.7 µM |  | 46.8 µM |  | 95 µM |  | 44.1 µM |  | > 100 µM |  | 41.1 µM | 85.9 µM | 
3 | CC(=O)C(C=O)C(C)=O.CC(=O)CC(C)=O.CC(=O)CC(C)=O.[Ru] | 0.0279 µM | 2.1 µM | 12.1 µM | 44.3 µM | 2.15 µM | 26.3 µM | 16.4 µM | 55.1 µM | 29.1 µM | > 100 µM |  |  | 32.9 µM | > 100 µM | 49.4 µM | > 100 µM | 7.27 µM | 69.5 µM | > 100 µM | 35.4 µM
4 | COC(CC1(OC)OC(=O)C=C1N)OC (stereo unspecified) |  | > 100 µM |  | > 100 µM |  | > 100 µM |  | > 100 µM |  | > 100 µM |  | > 100 µM |  | > 100 µM |  | > 100 µM |  |  |  | 
5 | CCCc1n(Cc2ccc3ccccc3n2)cc[n+]1Cc1ccc2ccccc2n1 | 0.866 µM | 2.36 µM | 0.819 µM | 14.2 µM | 0.705 µM | 10.6 µM | 0.438 µM | 5.07 µM | 1.51 µM | 12.3 µM | 7.21 µM | 35 µM | 0.778 µM | 4.84 µM | 2.29 µM | 13.5 µM | 1.3 µM | 8 µM | 11.9 µM | 1.25 µM
6 | CCCCCCSc1nc(COC(=O)NC)c(COC(=O)NC)n1C |  | > 100 µM |  | > 100 µM |  | > 100 µM |  | > 100 µM |  | > 100 µM |  | > 100 µM |  | > 100 µM |  | > 100 µM |  | > 100 µM | > 100 µM | 
7 | O=C1NC(=N[C@H](CO)c2ccccc2)S/C1=C\c1ccc2ncccc2c1 | 4.89 µM | 10.6 µM | 6.42 µM | > 25 µM | 4.13 µM | 13.7 µM | 1.54 µM | 6.31 µM | 1.96 µM | > 19.8 µM | 2.07 µM | 7.13 µM | 6.39 µM | 19.2 µM | 7.46 µM | > 25 µM | 3.95 µM | > 16 µM | > 25 µM | 4.57 µM
8 | CS(=O)(=O)N1CCc2c(-c3cnc(N)nc3)nc(N3CCOCC3)nc21 | 1.78 µM and 1.36 µM | > 30.7 µM | 1.94 µM and 1.37 µM | > 100 µM | 0.59 µM and 0.641 µM | > 21.4 µM | 0.642 µM and 2.1 µM | > 48.7 µM | 1.7 µM and 1.27 µM | > 10 µM and 23 µM | 0.203 µM and 0.101 µM | 0.836 µM and 0.447 µM | 0.809 µM and 0.446 µM | 6.85 µM and 3.8 µM | 1.43 µM and 0.625 µM | > 41 µM | 0.51 µM and 0.479 µM | 6.08 µM and 6.39 µM | > 76.1 µM | 0.0961 µM and 0.05 µM
9 | CC1CC(c2ccc(Cl)c(Cl)c2)=Nc2ccccc2S1 (stereo unspecified) |  | > 100 µM |  | > 100 µM |  | > 100 µM |  | > 100 µM |  | > 100 µM |  | > 100 µM |  | > 100 µM |  | > 100 µM |  |  |  | 
10 | COc1ccc2nc3cc(Cl)ccc3c(Nc3cc(C(C)C)c(O)cc3C)c2c1 | 1.61 µM | 3.1 µM | 2.2 µM | 6.02 µM | 1.69 µM | 3.26 µM | 1.79 µM | 3.65 µM | 1.79 µM | 3.53 µM | 2.05 µM | 6.58 µM | 1.35 µM | 3.07 µM | 1.74 µM | 3.31 µM | 0.588 µM | 2.89 µM | 3.96 µM | 1.66 µM
11 | NC(=O)c1cc([N+](=O)[O-])cc([N+](=O)[O-])c1 |  | > 100 µM |  | > 100 µM |  | > 100 µM |  | > 100 µM |  | > 100 µM |  | > 100 µM |  | > 100 µM |  | > 100 µM |  |  |  | 
12 | COC(=O)C1=C(\O)C[C@@]2(C)CC[C@@H](C(=O)OC)C2C/C=C\1C(=O)OC (stereo partly specified) |  | > 100 µM |  |  |  | > 100 µM |  | > 100 µM |  | > 100 µM |  | 75.3 µM |  | > 100 µM |  | > 100 µM |  |  |  | 
13 | Cc1cc(C#Cc2ccccc2)ccc1-n1c(/C=C/c2cc(O)ccc2O)nc2ccccc2c1=O | 1.35 µM | 2.64 µM | 1.48 µM | 3.12 µM | 1.49 µM | 2.81 µM | 1.29 µM | 2.56 µM | 1.45 µM | 2.77 µM | 0.37 µM | 2.63 µM | 1.56 µM | 2.94 µM | 1.54 µM | 2.91 µM |  |  | 2.87 µM | 1.45 µM
14 | C=C1C(=O)C2(C)OC2(C)C1C(=O)O (stereo unspecified) |  | > 100 µM |  | > 100 µM |  | > 100 µM |  | > 100 µM |  | > 100 µM |  |  |  | > 100 µM |  | > 100 µM |  | > 100 µM | > 100 µM | 
15 | O=C(/C=C/c1ccc(O)cc1)c1cc(Cl)ccc1O |  | > 100 µM |  | > 100 µM |  | > 100 µM |  | 36.2 µM |  | > 100 µM |  | > 100 µM |  | > 100 µM |  | > 100 µM |  |  |  | 
16 | C#Cc1ccc(-n2c(/C=C/c3ccc4ccccc4c3)nc3ncccc3c2=O)cc1 | 1.16 µM | 2.52 µM | 6.39 µM | > 100 µM |  |  | 5.11 µM | > 100 µM | 3.69 µM | > 100 µM | 1.69 µM | 5.86 µM |  |  |  |  | 1.98 µM | 5.45 µM | > 100 µM | 2.43 µM
